Our source for the Ki and IC50 values is patent publication US10988477B2 (Merck Patent GmbH, priority 2018, dated 2021).

Where two headings read alike, the source gives them in different places.

The target of one assay is GCN2 kinase (Homo sapiens, UniProt Q9P2K8). As to the kind of experiment: GCN2 enzyme inhibition assay (Transcreener ADP2 fluorescence polarization). The assay is classed as biochemical. Conditions: 280 μM ATP. In outline:
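4 nM GCN2 + 200 μM (RS)7 + compound (0–8 μM), 10 min preinc.; start with ATP (280 μM final); 1 h, 25 °C; pH 7.5 Tris/NaCl/MgCl2/DTT; ADP FP readout; IC50, Ki(app) via tight-binding fit.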
For orientation: Fluorescence polarisation rises when a labelled molecule tumbles more slowly, as on binding a larger partner.

Assay [1] has as its target intracellular GCN2 (phosphorylation of the GCN2 substrate eIF2α) (Homo sapiens, UniProt Q9P2K8). As to the kind of experiment: GCN2 cellular inhibition assay (AlphaScreen SureFire P-eIF2α Ser51, borrelidin-treated U2OS cells). The assay is classed as cell-based. In short, it runs like this: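 U2OS, overnight attach; cpd 4-fold serial dil. from 40 μM final; borrelidin 10 μM, 1 h 37 °C/5% CO2; lyse; AlphaScreen P-eIF2α Ser51 (acceptor 2 h, donor overnight, RT, dark); % inhib. vs borrelidin-only.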
Background: Alpha assays give light when donor and acceptor beads are brought close together.

[2] abbreviates: Enzyme activity for compounds of Formula IV, Ki(app), 25° C.
Setting [3] is: compounds of Formula IV, biomarker assay, phosphorylated eIF2α Ser51 in borrelidin-treated U2OS cells.
Where [4] appears, read: compounds of Formula II, 4 nM GCN2 kinase.
[5] abbreviates: compounds of Formula II, biomarker assay, phosphorylated eIF2α Ser51 in borrelidin-treated U2OS cells.
[6] abbreviates: compounds of Formula V, 4 nM GCN2 kinase.
[7] abbreviates: compounds of Formula V, U2OS cells, 10 μM borrelidin, 1 h, read-out: GCN2 Biomarker (IC50).

intracellular GCN2 (phosphorylation of the GCN2 substrate eIF2α), sequence (Q9P2K8 whole entry): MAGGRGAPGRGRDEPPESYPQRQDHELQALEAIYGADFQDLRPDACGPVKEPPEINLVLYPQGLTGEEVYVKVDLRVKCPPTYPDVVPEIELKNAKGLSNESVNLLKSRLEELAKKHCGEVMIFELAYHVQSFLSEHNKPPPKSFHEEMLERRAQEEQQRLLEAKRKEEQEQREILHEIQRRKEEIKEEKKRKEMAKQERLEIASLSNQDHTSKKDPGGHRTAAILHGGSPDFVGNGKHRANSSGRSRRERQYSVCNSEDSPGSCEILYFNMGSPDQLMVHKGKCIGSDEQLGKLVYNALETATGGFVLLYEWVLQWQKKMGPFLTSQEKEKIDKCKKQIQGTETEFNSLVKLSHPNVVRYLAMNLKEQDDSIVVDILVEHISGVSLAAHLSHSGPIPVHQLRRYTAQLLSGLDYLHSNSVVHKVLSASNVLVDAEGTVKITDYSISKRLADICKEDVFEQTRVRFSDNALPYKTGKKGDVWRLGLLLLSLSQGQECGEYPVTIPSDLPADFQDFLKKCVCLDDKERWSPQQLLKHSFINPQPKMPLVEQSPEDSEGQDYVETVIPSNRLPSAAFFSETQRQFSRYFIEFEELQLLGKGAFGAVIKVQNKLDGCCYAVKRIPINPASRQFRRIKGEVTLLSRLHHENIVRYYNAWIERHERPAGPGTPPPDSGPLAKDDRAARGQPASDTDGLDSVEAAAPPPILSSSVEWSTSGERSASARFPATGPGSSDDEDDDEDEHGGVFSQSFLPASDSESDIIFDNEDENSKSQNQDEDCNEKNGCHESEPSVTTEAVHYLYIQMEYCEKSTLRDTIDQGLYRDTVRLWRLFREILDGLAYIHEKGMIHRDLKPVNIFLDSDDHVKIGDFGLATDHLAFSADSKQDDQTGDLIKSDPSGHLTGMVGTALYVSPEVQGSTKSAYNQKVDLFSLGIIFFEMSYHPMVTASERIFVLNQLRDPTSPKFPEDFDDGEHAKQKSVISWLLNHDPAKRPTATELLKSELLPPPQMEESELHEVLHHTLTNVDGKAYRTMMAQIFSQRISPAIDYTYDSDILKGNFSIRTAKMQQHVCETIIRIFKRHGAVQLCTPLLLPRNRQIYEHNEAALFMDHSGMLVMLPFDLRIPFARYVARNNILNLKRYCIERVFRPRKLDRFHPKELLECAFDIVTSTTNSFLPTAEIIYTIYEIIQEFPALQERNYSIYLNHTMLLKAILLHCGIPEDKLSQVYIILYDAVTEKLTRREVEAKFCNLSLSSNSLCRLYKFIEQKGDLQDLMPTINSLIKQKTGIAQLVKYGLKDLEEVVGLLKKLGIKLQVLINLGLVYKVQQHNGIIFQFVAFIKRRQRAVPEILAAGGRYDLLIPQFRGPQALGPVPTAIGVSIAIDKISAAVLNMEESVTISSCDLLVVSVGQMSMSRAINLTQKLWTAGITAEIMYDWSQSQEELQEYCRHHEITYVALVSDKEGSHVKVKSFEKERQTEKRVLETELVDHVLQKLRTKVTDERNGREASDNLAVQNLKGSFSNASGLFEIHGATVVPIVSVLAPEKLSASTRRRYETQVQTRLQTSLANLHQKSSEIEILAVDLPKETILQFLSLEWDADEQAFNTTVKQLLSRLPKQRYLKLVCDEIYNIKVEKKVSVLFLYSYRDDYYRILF
GCN2 kinase, sequence (Q9P2K8 whole entry): as above

In the case of `Clc1cn2c(-c3nccc(N4CCNC(c5c[nH]cn5)C4)n3)cnc2cn1` (stereo not drawn) [IV-347, 3-(4-(3-(1H-Imidazol-4-yl)piperazin-1-yl)pyrimidin-2-yl)-6-chloroimidazo[1,2-a]pyrazine], the Ki at GCN2 kinase (setting [2]) was in the range of 100 to 1000 nM. The IC50 in assay [1] (setting [3]) is over 5 µM.

`FC(F)(F)c1cn2c(-c3nccc(N4CCC(Cc5cn[nH]c5)C4)n3)cnc2cn1` (stereo not drawn) [IV-635, 3-(4-(3-((1H-Pyrazol-4-yl)methyl)pyrrolidin-1-yl)pyrimidin-2-yl)-6-(trifluoromethyl)imidazo[1,2-a]pyrazine]: at GCN2 kinase (setting [2]), the Ki lay within 10 to 100 nM. In assay [1] (setting [3]), the half-inhibitory concentration (IC50) is 0.5 to 5 µM.

For the compound `CC1C(c2cn[nH]c2)NCCN1c1ccnc(-c2cnc3cnc(Br)cn23)n1` (single isomer, unassigned) [IV-413, 6-Bromo-3-(4-(2-methyl-3-(1H-pyrazol-4-yl)piperazin-1-yl)pyrimidin-2-yl)imidazo[1,2-a]pyrazine], at GCN2 kinase (setting [2]), the Ki lay within 10 to 100 nM. Also, the IC50 in assay [1] (setting [3]) lay in the range of 0.5 to 5 µM.

`CC1C(CS(C)(=N)=O)CCCN1c1cc(-c2cnc3ccc(C(F)F)nn23)ncn1` (stereo not drawn) [II-488, ((1-(6-(6-(Difluoromethyl)imidazo[1,2-b]pyridazin-3-yl)pyrimidin-4-yl)-2-methylpiperidin-3-yl)methyl)(imino)(methyl)-λ^6-sulfanone]: the Ki at GCN2 kinase (setting [4]) is 10 to 1000 nM. Further, the IC50 in assay [1] (setting [5]) is over 5 µM.

Consider `OC1CCCN(c2ccnc(-c3cnc4cnc(C(F)(F)F)cn34)n2)CC1` (stereo not drawn) [IV-447, 1-(2-(6-(Trifluoromethyl)imidazo[1,2-a]pyrazin-3-yl)pyrimidin-4-yl)azepan-4-ol], for which the Ki at GCN2 kinase (setting [2]) lay in the range of 100 to 1000 nM. Further, the half-maximal inhibitory concentration (IC50) in assay [1] (setting [3]) was over 5 µM.

In the case of `CC1CN(c2cc(-c3cnc4ccc(C(F)(F)F)nn34)ncn2)CC(CNS(C)(=O)=O)C1(F)F` (stereo not drawn) [II-294, N-((4,4-Difluoro-5-methyl-1-(6-(6-(trifluoromethyl)imidazo[1,2-b]pyridazin-3-yl)pyrimidin-4-yl)piperidin-3-yl)methyl)methanesulfonamide], on GCN2 kinase (setting [4]), the Ki was 10 to 1000 nM. The compound also showed an IC50 in assay [1] (setting [5]) of over 5 µM.

As for `CC1NCC(C)N(c2ccnc(-c3cnc4cnc(C(F)(F)F)cn34)n2)C1c1ccc(=O)[nH]c1` (stereo not drawn) [IV-676, 5-(3,6-Dimethyl-1-(2-(6-(trifluoromethyl)imidazo[1,2-a]pyrazin-3-yl)pyrimidin-4-yl)piperazin-2-yl)pyridin-2(1H)-one], the Ki on GCN2 kinase (setting [2]) fell in the range of 100 to 1000 nM. In addition, the IC50 in assay [1] (setting [3]) was in the range of 0.5 to 5 µM.

`FC(F)c1ccc2ncc(-c3ccnc(N4CCOC(c5cn[nH]c5)C4)c3)n2n1` (stereo not drawn) [II-107, 4-(4-(6-(Difluoromethyl)imidazo[1,2-b]pyridazin-3-yl)pyridin-2-yl)-2-(1H-pyrazol-4-yl)morpholine] had a Ki on GCN2 kinase (setting [4]) of 10 to 1000 nM. The same compound came in with an IC50 in assay [1] (setting [5]) of under 0.5 µM.

For `NS(=O)(=O)N1CCCC2(CN(c3cc(-c4cnc5ccc(C(F)F)nn45)ncn3)C2)C1` [II-284, 2-(6-(6-(Difluoromethyl)imidazo[1,2-b]pyridazin-3-yl)pyrimidin-4-yl)-2,6-diazaspiro[3.5]nonane-6-sulfonamide], the Ki at GCN2 kinase (setting [4]) lay in the range of 10 to 1000 nM. The compound also yielded an IC50 in assay [1] (setting [5]) of over 5 µM.

`CC1CC(CNS(C)(=O)=O)CN(c2cc(-c3cnc4ccc(C(F)F)nn34)ncn2)C1` (single isomer, unassigned) [II-437, N-((1-(6-(6-(Difluoromethyl)imidazo[1,2-b]pyridazin-3-yl)pyrimidin-4-yl)-5-methylpiperidin-3-yl)methyl)methanesulfonamide] yielded a Ki at GCN2 kinase (setting [4]) of under 10 nM. In assay [1] (setting [5]), the 50% inhibitory concentration (IC50) was under 0.5 µM.

In the case of `O=C1CCCC2CN(c3cc(-c4cnc5ccc(Cl)nn45)ccn3)CCN12` (stereo not drawn) [II-207, 2-(4-(6-Chloroimidazo[1,2-b]pyridazin-3-yl)pyridin-2-yl)hexahydro-1H-pyrido[1,2-a]pyrazin-6(2H)-one], the Ki at GCN2 kinase (setting [4]) was 10 to 1000 nM. The compound also returned a concentration for half-maximal inhibition (IC50) in assay [1] (setting [5]) of over 5 µM.

Take `CC1CN(c2ccnc(-c3cnc4sc(C(F)(F)F)cn34)n2)C(C)C(c2cn[nH]c2)N1` (stereo not drawn) [Compound V-13, 5-[4-[2,5-Dimethyl-3-(1H-pyrazol-4-yl)piperazin-1-yl]pyrimidin-2-yl]-2-(trifluoromethyl)imidazo[2,1-b]thiazole]: the Ki on GCN2 kinase (setting [6]) is under 10 nM. For the same compound, in assay [1] (setting [7]), the IC50 was under 0.5 µM.

Regarding `C[C@H]1CCCN(c2ccnc(-c3cnc4cnc(C(F)F)cn34)n2)C1` [IV-137, (S)-6-(Difluoromethyl)-3-(4-(3-methylpiperidin-1-yl)pyrimidin-2-yl)imidazo[1,2-a]pyrazine], at GCN2 kinase (setting [2]), the Ki fell in the range of 100 to 1000 nM. This compound gave an IC50 in assay [1] (setting [3]) of over 5 µM.

On GCN2 kinase (setting [2]), `FC(F)(F)c1cn2c(-c3nccc(N4CC(c5cn[nH]c5)N5CCC[C@H]5C4)n3)cnc2cn1` (stereo partly drawn) [IV-679, 3-(4-((8aS)-4-(1H-Pyrazol-4-yl)hexahydropyrrolo[1,2-a]pyrazin-2(1H)-yl)pyrimidin-2-yl)-6-(trifluoromethyl)imidazo[1,2-a]pyrazine] came in with a Ki of under 10 nM. In assay [1] (setting [3]), this compound returned an IC50 of 0.5 to 5 µM.

The compound `CC1NC(c2cn[nH]c2)C(C)N(c2ccnc(-c3cnc4cnc(C(F)(F)F)cn34)n2)C1C` (stereo not drawn) [IV-323, 6-(Trifluoromethyl)-3-(4-(2,3,6-trimethyl-5-(1H-pyrazol-4-yl)piperazin-1-yl)pyrimidin-2-yl)imidazo[1,2-a]pyrazine] gave a Ki on GCN2 kinase (setting [2]) of under 10 nM. In assay [1] (setting [3]), this compound gave an IC50 of 0.5 to 5 µM.

Take `CC1CC(CNS(C)(=O)=O)CN(c2cc(-c3cnc4ccc(C(F)F)nn34)ncn2)C1C` (stereo not drawn) [II-544, N-((1-(6-(6-(Difluoromethyl)imidazo[1,2-b]pyridazin-3-yl)pyrimidin-4-yl)-5,6-dimethylpiperidin-3-yl)methyl)methanesulfonamide]: on GCN2 kinase (setting [4]), the Ki was under 10 nM. In assay [1] (setting [5]), this compound registered an IC50 of under 0.5 µM.

Regarding `FC(F)(F)c1cn2c(-c3nccc(N4CCNC(c5cn[nH]c5)C4)n3)cnc2cn1` (stereo not drawn) [IV-211, 3-(4-(3-(1H-Pyrazol-4-yl)piperazin-1-yl)pyrimidin-2-yl)-6-(trifluoromethyl)imidazo[1,2-a]pyrazine], the Ki on GCN2 kinase (setting [2]) was under 10 nM. For the same compound, the IC50 in assay [1] (setting [3]) was 0.5 to 5 µM.

Turning to `CC1C(NS(C)(=O)=O)CCCN1c1cc(-c2cnc3ccc(C(F)F)nn23)ncn1` (single isomer, unassigned) [II-377, N-[1-[6-[6-(Difluoromethyl)imidazo[1,2-b]pyridazin-3-yl]pyrimidin-4-yl]-2-methyl-3-piperidyl]methanesulfonamide], the Ki at GCN2 kinase (setting [4]) is 10 to 1000 nM. The half-maximal inhibitory concentration (IC50) in assay [1] (setting [5]) is under 0.5 µM.

At GCN2 kinase (setting [6]), `CC1CN(c2ccnc(-c3cnc4sc(C(F)F)cn34)n2)CC(CNS(C)(=O)=O)C1(F)F` (stereo not drawn) [Compound V-14, N-[[1-[2-[2-(Difluoromethyl)imidazo[2,1-b]thiazol-5-yl]pyrimidin-4-yl]-4,4-difluoro-5-methyl-3-piperidyl]methyl]methanesulfonamide] had a Ki of 10 to 100 nM. For the same compound, the IC50 in assay [1] (setting [7]) is 0.5 to 5 µM.

In turn, `CC1C(CNS(C)(=O)=O)N(C2CC2)CCN1c1cc(-c2cnc3ccc(C(F)F)nn23)ncn1` (single isomer, unassigned) [II-478, N-((1-Cyclopropyl-4-(6-(6-(difluoromethyl)imidazo[1,2-b]pyridazin-3-yl)pyrimidin-4-yl)-3-methylpiperazin-2-yl)methyl)methanesulfonamide] showed a Ki at GCN2 kinase (setting [4]) of 10 to 1000 nM. Further, the IC50 in assay [1] (setting [5]) lay in the range of 0.5 to 5 µM.

Compound `FC(F)(F)c1cn2c(-c3nccc(N4CCOCC4)n3)cnc2cn1` [IV-426, 4-(2-(6-(Trifluoromethyl)imidazo[1,2-a]pyrazin-3-yl)pyrimidin-4-yl)morpholine] had a Ki on GCN2 kinase (setting [2]) of 100 to 1000 nM. This compound registered an IC50 in assay [1] (setting [3]) of over 5 µM.

In general, IC50 refers to the concentration needed to halve the response being measured.
